Assay results as given in US8809347B2, “Bicyclic aryl and bicyclic heteroaryl substituted triazoles useful as AXL inhibitors” (Rigel Pharmaceuticals, Inc., priority 2006, dated 2014).
pIC50: −log10 of the molar value.

Target: T1, Axl (Homo sapiens, UniProt P30530)
T1 construct: Cells: Hela cells; endogenous in cells; host or cells: HeLa cells
T1 sequence (P30530 26-894): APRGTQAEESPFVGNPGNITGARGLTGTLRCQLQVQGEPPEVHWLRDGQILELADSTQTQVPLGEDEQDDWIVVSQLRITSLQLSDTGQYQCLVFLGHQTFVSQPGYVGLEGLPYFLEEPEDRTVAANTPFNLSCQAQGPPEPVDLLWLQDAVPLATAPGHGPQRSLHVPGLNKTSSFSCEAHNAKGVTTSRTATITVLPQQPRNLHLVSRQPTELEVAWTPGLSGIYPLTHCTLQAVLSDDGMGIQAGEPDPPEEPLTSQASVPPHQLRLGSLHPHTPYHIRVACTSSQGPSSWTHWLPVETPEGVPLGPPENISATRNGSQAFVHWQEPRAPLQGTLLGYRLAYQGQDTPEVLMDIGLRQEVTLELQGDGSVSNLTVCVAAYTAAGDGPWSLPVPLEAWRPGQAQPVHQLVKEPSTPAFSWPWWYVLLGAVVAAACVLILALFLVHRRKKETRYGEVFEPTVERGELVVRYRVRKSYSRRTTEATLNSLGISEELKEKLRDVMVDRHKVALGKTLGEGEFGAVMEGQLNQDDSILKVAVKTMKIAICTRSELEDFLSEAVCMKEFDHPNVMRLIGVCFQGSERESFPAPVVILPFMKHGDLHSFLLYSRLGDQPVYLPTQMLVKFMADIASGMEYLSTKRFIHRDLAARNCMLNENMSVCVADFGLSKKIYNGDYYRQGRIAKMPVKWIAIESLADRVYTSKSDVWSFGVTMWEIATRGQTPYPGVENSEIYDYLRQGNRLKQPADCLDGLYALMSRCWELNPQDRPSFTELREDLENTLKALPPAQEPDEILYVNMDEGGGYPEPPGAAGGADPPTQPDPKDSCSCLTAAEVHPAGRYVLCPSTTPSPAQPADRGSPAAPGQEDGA
Test: Phospho-Akt in-cell Western assay (inhibition of Axl activity)
Format: cell-based
Conditions: Hela cells; 1 hr pre-treatment; stimulation by Axl-antibody cross-linking; phospho-Akt chemiluminescence normalized to relative cell number

SMILES | pIC50
CN1CCN(c2ccc(Nc3nc(N)n(-c4cc(-c5ccccc5)c5c(n4)CCCCCC5)n3)cc2)CC1 [Compound 46, N^3-(4-(4-methylpiperazin-1-yl)phenyl)-1-(4-phenyl-5,6,7,8,9,10-Hexahydrocycloocta[b]-pyridin-2-yl)-1H-1,2,4-triazole-3,5-diamine] | 5.00 to 6.00
Nc1nc(Nc2ccc(N3CCC(N4CCCC4)CC3)c(F)c2)nn1-c1ncnc2c1CCCCCC2 [Compound 35, N^3-(3-fluoro-4-(4-(pyrrolidin-1-yl)piperidin-1-yl)phenyl)-1-(5,6,7,8,9,10-hexahydrocycloocta[d]pyrimidin-4-yl)-1H-1,2,4-triazole-3,5-diamine] | > 6.00
CS(=O)(=O)N1CCN(c2ccc(Nc3nc(N)n(-c4ncc5c(n4)CCCCCC5)n3)cc2F)CC1 [Compound 19, N^3-(3-fluoro-4-(4-(methylsulfonyl)piperazin-1-yl)phenyl)-1-(5,6,7,8,9,10-hexahydrocycloocta[d]pyrimidin-2-yl)-1H-1,2,4-triazole-3,5-diamine] | 5.00 to 6.00
Nc1nc(Nc2ccc(N3CCN(C4CCCCC4)CC3)c(Cl)c2)nn1-c1ncc2c(n1)CCCCCC2 [Compound 8, N^3-(3-chloro-4-(4-cyclohexylpiperazin-1-yl)phenyl)-1-(5,6,7,8,9,10-hexahydrocycloocta[d]pyrimidin-2-yl)-1H-1,2,4-triazole-3,5-diamine] | > 6.00
Nc1nc(Nc2ccc3c(c2)CCCN(C2CCCC2)CC3)nn1-c1nc2ccccc2s1 [Compound 32, 1-(benzo[d]thiazol-2-yl)-N^3-(3-cyclopentyl-1,2,3,4,5,6-hexahydrobenzo[d]azocin-8-yl)-1H-1,2,4-triazole-3,5-diamine] | 5.00 to 6.00

Now from value to compound:

pIC50 | SMILES
> 6.00 | Cc1csc2c(-n3nc(Nc4ccc5c(c4)OCCCCO5)nc3N)nc(Cl)nc12 [Compound 28, 1-(2-chloro-7-methylthieno[3,2-d]pyrimidin-4-yl)-N^3-(2,3,4,5-tetrahydrobenzo[b][1,4]dioxocin-8-yl)-1H-1,2,4-triazole-3,5-diamine]
> 6.00 | Cc1csc2c(-n3nc(Nc4cnc5c(c4)CCC(=O)CCC5)nc3N)nc(Cl)nc12 [Compound 34, 1-(2-chloro-7-methylthieno[3,2-d]pyrimidin-4-yl)-N^3-(7-oxo-5,6,8,9,10-pentahydrocycloocta[b]pyridin-3-yl)-1H-1,2,4-triazole-3,5-diamine]
> 6.00 | Cc1csc2c(-n3nc(Nc4ccc5c(c4)CCCN(C4CC6CCC4C6)CC5)nc3N)ncnc12 (stereo not drawn) [Compound 42, N^3-(3-(bicyclo[2.2.1]heptan-2-yl)-1,2,3,4,5,6-hexahydrobenzo[d]azocin-8-yl)-1-(7-methylthieno[3,2-d]pyrimidin-4-yl)-1H-1,2,4-triazole-3,5-diamine]
> 6.00 | COc1cc2ncnc(-n3nc(Nc4ccc5c(c4)C(=O)NCCCC5)nc3N)c2cc1OC [Compound 50, N^3-(1-oxo-1,2,3,4,5,6-hexahydrobenzo[c]azocin-9-yl)-1-(6,7-dimethoxyquinazolin-4-yl)-1H-1,2,4-triazole-3,5-diamine]
